Assay results: patent US4120893A, “Anionic naphthalene thioureido toluenesulfonic acids” (American Cyanamid Company, priority 1977, dated 1978)
Counter-ions that a name gives are not always drawn.

Key:
activated human C1 = experiment: Test, Code 026 (C1 inhibitor); type: biochemical; details: in vitro; two-fold serial dilution assay; higher well number indicates higher activity
Source text: (§1) An active inhibitor protects C2 from C1 and C4; (ii) Test, Code 035 (C3-C9 inhibitor)--This test determines the ability of the late components of human complement (C3-C9) to lyse EAC 142 in the presence of appropriate dilutions of the test compound. An active inhibitor protects EAC 142 from lysis by human C3-C9; (iii) Test, Code 036 (C-Shunt inhibitor)--In this test human erythrocytes rendered fragile are lysed in autologous serum via the shunt pathway activated by cobra venom factor in the presence of appropriate dilutions of the test compound. Inhibition of the shunt pathway results in failure of lysis; (iv) Forssman Vasculitis Test--Here, the well known complement dependent lesion, Forssman vasculitis, is produced in guinea pigs by intradermal injection of rabbit anti-Forssman antiserum. […]
(§2) With reference to Table I, guinea pigs weighing about 300 g were dosed intravenously (i.v.) or intraperitoneally (i.p.) with 200 mg/kg of the test compound dissolved in saline and adjusted to pH 7-8. […] Percent inhibition was calculated by comparison with simultaneous controls. […]

[1] = system: whole complement in serum; experiment: Complement Level Reduction Test in dosed guinea pigs (capillary tube assay); type: in vivo; details: guinea pig, intraperitoneal, 200 mg/kg
[2] = system: shunt pathway activated by cobra venom factor; experiment: Test, Code 036 (C-Shunt inhibitor), lysis of human erythrocytes in autologous serum; type: cell-based; details: in vitro; two-fold serial dilution assay; higher well number indicates higher activity
Source text: as §1, §2

[3] = system: late components of human complement (C3-C9); experiment: Test, Code 035 (C3-C9 inhibitor), lysis of EAC 142; type: cell-based; details: in vitro; two-fold serial dilution assay; higher well number indicates higher activity
Source text: as §1, §2

[4] = system: hereditary angioneurotic edema; details: The New England Journal of Medicine, 286, 808-812 (1972); cited from earlier work
complement system = details: reported in cited literature; cited from earlier work

Compound	use in treatment of hereditary angioneurotic edema [4]	anticomplementary effect / inhibition of the complement system (complement system)	further results
Cc1c(NC(=S)Nc2cc(S(=O)(=O)[O-])cc3cc(S(=O)(=O)[O-])cc(S(=O)(=O)[O-])c23)cc(S(=O)(=O)[O-])cc1NC(=S)Nc1cc(S(=O)(=O)[O-])cc2cc(S(=O)(=O)[O-])cc(S(=O)(=O)[O-])c12.[Na+].[Na+].[Na+].[Na+].[Na+].[Na+].[Na+] [8,8'-[(2-methyl-5-sulfo-1,3-phenylene)bis(2-thioureylene)]di-1,3,6-naphthalenetrisulfonic acid heptasodium salt]			C1 026* Wells (activated human C1): +7 Wells; % change in serum complement level ([1]; 30 minutes): -40%; % change in serum complement level ([1]; 60 minutes): -40%; % change in serum complement level ([1]; 120 minutes): -51%; Shunt Inhibition 036* Wells [2]: N; C-Late 035* Wells [3]: N
NCCCCCC(=O)O [epsilon-aminocaproic acid]	used with success		
Cc1ccc(C(=O)Nc2ccc(S(=O)(=O)O)c3cc(S(=O)(=O)O)cc(S(=O)(=O)O)c23)cc1NC(=O)c1cccc(NC(=O)Nc2cccc(C(=O)Nc3cc(C(=O)Nc4ccc(S(=O)(=O)O)c5cc(S(=O)(=O)O)cc(S(=O)(=O)O)c45)ccc3C)c2)c1 [Suramin]	used with success	competitive inhibitor of the complement system	
NC[C@H]1CC[C@H](C(=O)O)CC1 [tranexamic acid]	used with success		
heparin		anticomplementary effect	
Nc1ccc2cc(S(=O)(=O)O)cc(O)c2c1N=Nc1ccc(NC(=O)Nc2ccc(N=Nc3c(N)ccc4cc(S(=O)(=O)O)cc(O)c34)c(S(=O)(=O)O)c2)cc1S(=O)(=O)O [chlorazol fast pink, 3,3'-ureylenebis-[6-(2-amino-8-hydroxy-6-sulfo-1-naphthylazo)]benzenesulfonic acid, tetrasodium salt]		anticomplementary effect	
